# Assay results: patent US9834514B2, “Antibiotic sensitivity-restoring and photosensitive agents” (New Mexico Tech Research Foundation, priority 2015, dated 2017)
# Tested on: A. baumannii
# Assay: Checkerboard assay (FICI)
# Format: cell-based
# Conditions: with PMB
# Method: Another method for determining synergy is a checkerboard assay. A checkerboard assay is performed whereby one of the test compounds is serially diluted horizontally across a plate, while the other test compound is serially diluted vertically down the plate. The perpendicular serial dilutions result in combinations of the compounds that range in concentrations from the highest to the lowest of each compound added. In the present study, the checkerboard assay method was adjusted by serially diluting one of the test compounds horizontally and adding the second drug to each well at a concentration of ¼ MIC. The 24-well microtiter plate was then incubated at 37° C. for 18-24 hours on a rotary shaker incubator at 150 rpm. After incubation, MTT reagent was added to each well at a 10% sample volume. Synergy was determined on the lowest concentration of the combined drugs, which produced no purple coloring. Calculation of synergy was determined by the Fractional Inhibitory Concentration Index (FICI): FICI=([Drug 1]Synergy/[Drug1]MIC)+([Drug 2]Synergy/[Drug 2]MIC). FICI≦0.5 is an indication of synergy.
# TABLE 17 details the obtained FICI values for compound 1 in combination with varying antibiotics against MRSA, A. baumannii, and E. coli.
smiles,measurement,value
Clc1ccc(/C=C/c2[nH]c3ccccc3c2/C=C/c2ccc(Cl)cc2)cc1 [Compound 1],FIC Index,0.1
